According to ChEMBL document CHEMBL1144194, “Initial SAR studies on apamin-displacing 2-aminothiazole blockers of calcium-activated small conductance potassium channels” (Bioorg Med Chem Lett, 2008):
Active and inactive are the calls of the source. The rule behind the calls is not given here. Peptide text beside a SMILES is read from it.

What was measured:
[1] = target: T1, Small conductance calcium-activated potassium channel protein 3 (Homo sapiens, UniProt Q9UGI6); assay: Inhibition of Kca2.3 channel expressed in HEK293 cells by thallium flux assay; assay type: cell-based
T1 sequence (Q9UGI6 whole entry): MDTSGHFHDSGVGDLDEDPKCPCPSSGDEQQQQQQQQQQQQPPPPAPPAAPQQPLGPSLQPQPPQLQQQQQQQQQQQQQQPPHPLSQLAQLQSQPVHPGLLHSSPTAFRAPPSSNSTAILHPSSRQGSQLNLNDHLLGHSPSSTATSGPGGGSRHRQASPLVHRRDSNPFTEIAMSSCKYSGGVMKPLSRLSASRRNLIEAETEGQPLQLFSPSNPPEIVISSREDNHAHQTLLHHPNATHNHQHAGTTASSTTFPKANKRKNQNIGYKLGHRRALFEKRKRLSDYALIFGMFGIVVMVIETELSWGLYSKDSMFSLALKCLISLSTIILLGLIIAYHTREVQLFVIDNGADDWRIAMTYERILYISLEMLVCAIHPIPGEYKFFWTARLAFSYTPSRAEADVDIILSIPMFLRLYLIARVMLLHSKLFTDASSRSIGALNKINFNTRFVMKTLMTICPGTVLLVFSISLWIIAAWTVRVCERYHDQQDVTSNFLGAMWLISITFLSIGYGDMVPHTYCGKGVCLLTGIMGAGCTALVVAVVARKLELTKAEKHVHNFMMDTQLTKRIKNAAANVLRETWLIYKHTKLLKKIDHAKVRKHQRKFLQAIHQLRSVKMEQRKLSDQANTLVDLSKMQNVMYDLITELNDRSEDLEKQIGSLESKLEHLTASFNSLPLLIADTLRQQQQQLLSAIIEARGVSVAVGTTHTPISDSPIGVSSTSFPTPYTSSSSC

[2] = target: T1, Small conductance calcium-activated potassium channel protein 3; assay: Inhibition of Kca2.3 channel expressed in HEK293 cells at 30 uM by thallium flux assay; assay type: cell-based
[3] = target: Intermediate conductance calcium-activated potassium channel protein 4 (Homo sapiens) (UniProt O15554); assay: Inhibition of Kca3.1 channel expressed in HEK293 cells at 30 uM by thallium flux assay; assay type: cell-based
Sequence of Intermediate conductance calcium-activated potassium channel protein 4 (Homo sapiens) (O15554 whole entry): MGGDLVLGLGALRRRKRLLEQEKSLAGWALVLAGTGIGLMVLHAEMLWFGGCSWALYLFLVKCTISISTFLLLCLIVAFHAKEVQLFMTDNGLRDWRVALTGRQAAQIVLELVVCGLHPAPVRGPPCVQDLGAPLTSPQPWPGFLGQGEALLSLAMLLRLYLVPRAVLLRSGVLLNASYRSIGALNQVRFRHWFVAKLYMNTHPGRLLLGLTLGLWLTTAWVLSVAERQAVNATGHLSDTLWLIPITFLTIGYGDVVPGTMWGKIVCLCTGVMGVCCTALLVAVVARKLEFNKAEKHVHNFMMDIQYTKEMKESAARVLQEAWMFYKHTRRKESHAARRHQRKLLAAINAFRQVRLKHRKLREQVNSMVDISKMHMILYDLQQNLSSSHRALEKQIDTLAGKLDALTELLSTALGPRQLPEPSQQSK

[4] = Inhibition of Kca channel
[5] = Inhibition of guinea-pig Kca channel; design: species or system Cavia porcellus
[6] = target: T1, Small conductance calcium-activated potassium channel protein 3; assay: Inhibition of Kca2.3 channel expressed in HEK293 cells by electrophysiology assay; assay type: cell-based
[7] = target: Intermediate conductance calcium-activated potassium channel protein 4 (Homo sapiens) (UniProt O15554); assay: Inhibition of Kca3.1 channel expressed in HEK293 cells by thallium flux assay; assay type: cell-based
[8] = target: Small conductance calcium-activated potassium channel protein 1 (Homo sapiens, UniProt Q92952); assay: Inhibition of Kca2.1 channel expressed in HEK293 cells by thallium flux assay; assay type: cell-based
Sequence of Small conductance calcium-activated potassium channel protein 1 (Q92952 whole entry): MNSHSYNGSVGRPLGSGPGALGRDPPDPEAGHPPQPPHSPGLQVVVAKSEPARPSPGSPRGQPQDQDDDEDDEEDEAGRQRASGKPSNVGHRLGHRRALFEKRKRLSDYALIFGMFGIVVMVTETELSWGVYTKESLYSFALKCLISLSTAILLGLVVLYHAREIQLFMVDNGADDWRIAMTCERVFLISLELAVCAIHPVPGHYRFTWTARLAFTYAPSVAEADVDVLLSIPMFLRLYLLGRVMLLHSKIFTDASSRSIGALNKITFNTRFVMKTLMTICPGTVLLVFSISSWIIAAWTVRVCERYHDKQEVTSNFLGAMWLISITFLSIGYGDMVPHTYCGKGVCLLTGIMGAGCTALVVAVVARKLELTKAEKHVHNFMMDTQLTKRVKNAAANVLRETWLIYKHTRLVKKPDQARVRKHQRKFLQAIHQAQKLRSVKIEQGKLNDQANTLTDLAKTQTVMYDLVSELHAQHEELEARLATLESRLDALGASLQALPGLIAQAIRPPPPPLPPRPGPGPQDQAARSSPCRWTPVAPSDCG

[9] = target: T1, Small conductance calcium-activated potassium channel protein 3; assay: Displacement of [125I]apamin from Kca2.3 channel expressed in HEK293 cells by scintillation proximity assay; assay type: cell-based
[10] = target: T2, Small conductance calcium-activated potassium channel protein 2 (Homo sapiens, UniProt Q9H2S1); assay: Inhibition of Kca2.2 channel expressed in HEK293 cells by thallium flux assay; assay type: cell-based
T2 sequence (Q9H2S1 whole entry): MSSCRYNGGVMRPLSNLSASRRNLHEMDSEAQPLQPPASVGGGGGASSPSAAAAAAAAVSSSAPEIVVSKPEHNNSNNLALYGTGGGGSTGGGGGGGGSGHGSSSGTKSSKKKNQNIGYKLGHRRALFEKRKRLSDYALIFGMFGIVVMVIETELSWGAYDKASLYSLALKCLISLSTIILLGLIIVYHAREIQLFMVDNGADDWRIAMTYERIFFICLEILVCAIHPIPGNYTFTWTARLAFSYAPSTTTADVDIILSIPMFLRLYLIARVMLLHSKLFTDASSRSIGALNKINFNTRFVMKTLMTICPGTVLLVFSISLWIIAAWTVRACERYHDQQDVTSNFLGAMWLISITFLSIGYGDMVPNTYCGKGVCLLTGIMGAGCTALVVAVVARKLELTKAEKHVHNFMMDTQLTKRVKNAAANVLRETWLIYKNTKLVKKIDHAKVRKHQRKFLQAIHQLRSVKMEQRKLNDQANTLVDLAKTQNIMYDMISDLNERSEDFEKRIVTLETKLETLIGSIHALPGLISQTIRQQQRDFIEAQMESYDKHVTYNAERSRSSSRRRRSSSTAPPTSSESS

[11] = target: T2, Small conductance calcium-activated potassium channel protein 2; assay: Displacement of [125I]apamin from Kca2.2 channel expressed in HEK293 cells; assay type: cell-based

Compound	IC50 [1]	inhibition [2]	also measured
FC(F)(F)c1cnc(Nc2nc(-c3ccccn3)cs2)c(Cl)c1	> 30000 nM	8%	–
c1ccc(-c2csc(Nc3ncccn3)n2)nc1	> 30000 nM	24%	–
c1ccc(Cc2nc(-c3ccccn3)cs2)nc1	> 30000 nM	15%	–
Cc1ccnc(Nc2nc(-c3ccccn3)cs2)c1	–	98%	inhibition [3]: 10%
c1cc2cc(c1)C[n+]1ccc(c3ccccc31)NCc1ccc(cc1)CNc1cc[n+](c3ccccc13)C2	–	–	IC50 [4]: 3 nM
c1ccc(-c2csc(-c3ccccn3)n2)nc1	> 30000 nM	16%	–
CC[C@H](C)[C@H](NC(=O)[C@H](CS)NC(=O)[C@H](CCCCN)NC(=O)CNC(=O)[C@H](CC(C)C)NC(=O)[C@H](CC(C)C)NC(=O)CNC(=O)[C@H](CC(C)C)NC(=O)[C@H](CO)NC(=O)[C@H](CCCNC(=N)N)NC(=O)[C@H](CS)NC(=O)[C@H](CO)NC(=O)[C@H](CC(C)C)NC(=O)[C@H](CCC(N)=O)NC(=O)[C@H](CS)NC(=O)[C@H](CCSC)NC(=O)[C@H](CCCNC(=N)N)NC(=O)[C@H](CC(C)C)NC(=O)[C@H](CC(N)=O)NC(=O)[C@H](CS)NC(=O)[C@H](Cc1ccccc1)NC(=O)[C@H](C)N)C(=O)NCC(=O)N[C@@H](CC(=O)O)C(=O)N[C@@H](CCCCN)C(=O)N[C@@H](CS)C(=O)N[C@@H](CCC(=O)O)C(=O)N[C@@H](CS)C(=O)N[C@H](C(=O)N[C@@H](CCCCN)C(=O)N[C@@H](Cc1cnc[nH]1)C(=O)O)C(C)C [Scyllatoxin] (H-AFCNLRMCQLSCRSLGLLGKCIGDKCECVKH-OH)	–	–	Ki [5]: 0.075 nM
Cc1cc(N)c2ccccc2[n+]1CCCCCCCCCC[n+]1c(C)cc(N)c2ccccc21 [DEQUALINIUM CHLORIDE]	1300 nM	–	IC50 [4]: 1000 nM; IC50 [6]: 2000 nM
c1ccc2c(c1)CCC[C@H]2Nc1nc2ccccc2[nH]1	–	–	IC50 [4]: 500 nM

The next lines start with results.

IC50 [1]	inhibition [2]	Compound	also measured
> 30000 nM	14%	c1ccc(-c2csc(Nc3ccncc3)n2)nc1	–
> 30000 nM	29%	Ic1ccc(Nc2nc(-c3ccccn3)cs2)nc1	–
> 30000 nM	–	c1ccc(Nc2nc(-c3ccncc3)cs2)nc1	–
–	45%	c1ccc(-c2csc(Nc3cccnc3)n2)nc1	–
> 30000 nM	18%	c1ccc(Nc2nc(-c3ccccc3)cs2)cc1	–
> 30000 nM	14%	c1ccc(Nc2nc(-c3cccnc3)cs2)nc1	–
543 nM	89%	c1ccc(Nc2nc(-c3ccccn3)cs2)nc1	Activity [7]: inactive; IC50 [8]: 43 nM; IC50 [9]: 25 nM; IC50 [10]: 123 nM; IC50 [6]: 290 nM; IC50 [11]: 543 nM
–	9%	c1ccc(Nc2nc(-c3ccccn3)cs2)cc1	–
